Among the test systems are DMS 114 small cell lung; DMS 273 small cell lung; KM20L2 colon; M19-MEL melanoma; RXF-631 renal; SNB-78 CNS; XF 498 CNS; MDA-N; HOP-18 NSCLC; P388 leukemia; P388/ADR leukemia; SN12K1 renal.
Assay in all cases: NCI tumour cell line growth inhibition, 48 h

“And” between values parts separate entries of the source, which are not always exact repeats. Equal entries are not always repeated.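 48-hour exposure; five concentrations; linearly interpolated endpoints. The concentration for 50% growth inhibition is given as GI50. TGI is the concentration that stops growth completely.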

This is an account of results in PubChem BioAssay (NCI).

`CC1CCP(=O)(c2ccccc2)CC1` (stereo not given): the TGI in the experiment on DMS 114 small cell lung, with DMS 273 small cell lung, with KM20L2 colon, in the experiment on M19-MEL melanoma, with RXF-631 renal and in the experiment with SNB-78 CNS was > 100 µM in each case. For the same molecule, in the experiment on XF 498 CNS, the TGI is > 100 µM.

Regarding `O=C(O)c1cscc1Cc1cccs1`, in the experiment on MDA-N, the TGI is > 100 µM.

With `O=C1C(=O)c2ccccc2C(O)=C1CC=C(Cl)Cl`, the GI50 was 14.5 µM in the experiment with DMS 114 small cell lung; 7.04 µM in the experiment on KM20L2 colon; 9.49 µM in the experiment with M19-MEL melanoma; 6.74 µM with MDA-N; 11.5 µM in the experiment on SNB-78 CNS; 12.8 µM in the experiment with XF 498 CNS. In addition, the TGI in the experiment on DMS 114 small cell lung is 51.7 µM and 70.5 µM; with DMS 273 small cell lung it was 75.8 µM; in the experiment with HOP-18 NSCLC, 148 µM; in the experiment with KM20L2 colon it was 200 µM; in the experiment with M19-MEL melanoma, 25.9 µM and 93.8 µM; in the experiment on MDA-N, 34.9 µM and 172 µM. Further, the TGI is 54.9 µM in the experiment with P388 leukemia; 49.9 µM with P388/ADR leukemia; 113 µM with SN12K1 renal; 55.7 µM and 204 µM in the experiment on SNB-78 CNS; 49.2 µM and 131 µM in the experiment on XF 498 CNS.

With `CC1(C)CC(=O)C(=[N+]=[N-])C(=O)C1`, the TGI in the experiment on DMS 114 small cell lung, in the experiment with KM20L2 colon and with XF 498 CNS was > 100 µM throughout.

With `COc1cc(Cl)c2c3c(c(C(=O)c4ccccc4)oc13)CCC2`, the TGI with DMS 114 small cell lung, in the experiment with DMS 273 small cell lung, in the experiment on HOP-18 NSCLC, in the experiment with KM20L2 colon, with M19-MEL melanoma and in the experiment on SNB-78 CNS was > 100 µM each time. Also, the TGI in the experiment with XF 498 CNS is > 100 µM.

In the case of `COc1cc(NCC2COc3c(ccc(OC)c3OC)C2=O)c([N+](=O)[O-])cc1OC` (stereo not given), in the experiment on MDA-N, the TGI was > 100 µM.

Take `Cc1cc(C)c2c(SCc3ccc(Cl)cc3Cl)nc(N)nc2n1`: the TGI in the experiment on MDA-N is > 100 µM.

Take `CCc1c(O)c2c(c(O)c1C(C)=O)C(=O)c1c(cc(O)c(C(=O)O)c1C(=O)O)C2=O`: the TGI in the experiment on MDA-N was > 100 µM.

For the molecule `O=c1c2ccccc2nc(-c2ccccc2)n1O`, in the experiment on MDA-N, the TGI is > 100 µM.

On to `Cc1ccc(NC(=O)C2C(=O)N(c3ccc(C)c(C)c3)C(=O)/C2=N\NC(N)=S)cc1C` (stereo not given), for which the TGI in the experiment with DMS 273 small cell lung, with KM20L2 colon, in the experiment with M19-MEL melanoma, with RXF-631 renal, in the experiment with SNB-78 CNS and in the experiment on XF 498 CNS was > 100 µM in each case.

With `Cn1c2ccccc2c(=O)c2c([N+](=O)[O-])ccc(NCCN)c21`, the TGI was 26.4 µM with DMS 114 small cell lung; 16.9 µM in the experiment on DMS 273 small cell lung; 26.4 µM in the experiment on HOP-18 NSCLC; 24.1 µM in the experiment with KM20L2 colon; 26 µM with M19-MEL melanoma; 31.3 µM with SNB-78 CNS. For the same molecule, the TGI in the experiment on XF 498 CNS stood at 28.7 µM.

For `CC(O)(CNS(=O)(=O)c1ccccc1)c1ccccc1` (stereo not given), the TGI in the experiment on MDA-N is > 100 µM.

For `CN1CCN(CCNc2ccc(CO)c3sc4ccccc4c(=O)c23)CC1`, the TGI in the experiment with DMS 114 small cell lung was 22.9 µM; with DMS 273 small cell lung, 14.1 µM; with KM20L2 colon, 17.7 µM; in the experiment on M19-MEL melanoma, 25.7 µM.

Take `BrC1=CC=C2NCCCCCCN=C3C=CC(Br)=CC=C3NCCCCCCN=C2C=C1`: the TGI with DMS 114 small cell lung, in the experiment with DMS 273 small cell lung, with KM20L2 colon, with M19-MEL melanoma, in the experiment with RXF-631 renal and in the experiment on SNB-78 CNS was > 25.5 µM each time.

Molecule `COC1C(O)C(C)OC(OC2CC3CCC4C(CCC5(C)C(C6=CC(=O)OC6)CCC45O)C3(O)C(OC(C)=O)C2)C1O` (stereo not given) registered a TGI in the experiment on MDA-N of 5.05 µM.

Consider `CCCCCC(O)(CCCCC)CCCCCCCCC1=C(O)c2[nH]c(=O)ccc2C(=O)C1=O`, for which the TGI was 16.5 µM in the experiment with DMS 114 small cell lung; 12.6 µM with DMS 273 small cell lung; 27.9 µM in the experiment on KM20L2 colon; 13.8 µM in the experiment on M19-MEL melanoma; 23.8 µM with RXF-631 renal; 57.8 µM with SNB-78 CNS. The same molecule registered a TGI in the experiment with XF 498 CNS of 16 µM.

In the case of `NC(Cc1ccnnc1)C(=O)O` (stereo not given), the TGI in the experiment with MDA-N is > 100 µM.

In the case of `O=S(=O)(O)/C(=C\c1ccccc1)c1ccccc1` (tested in a mixture with another compound), the TGI in the experiment with MDA-N was > 100 µM.

Take `COC(=O)/C(=C/c1ccc(OC)cc1)NC(=O)c1ccccc1`: the TGI in the experiment with DMS 114 small cell lung and with KM20L2 colon was > 100 µM in each case.

Turning to `CCCCN(CCCC)C(=O)C(=O)C(C)C(=O)CC` (stereo not given), the TGI in the experiment on DMS 273 small cell lung, in the experiment with KM20L2 colon, in the experiment with SNB-78 CNS and in the experiment on XF 498 CNS was > 100 µM each time.

On to `O=[N+]([O-])[O-].O=[N+]([O-])[O-].[Au].[Au].c1ccc([P-]c2ccccc2)cc1.c1ccc([P-]c2ccccc2)cc1`, for which the GI50 in the experiment on DMS 114 small cell lung is 37.5 µM; in the experiment with DMS 273 small cell lung it was 39.2 µM; in the experiment on HOP-18 NSCLC, 18.5 µM; with KM20L2 colon, 36.4 µM; with SNB-78 CNS it was 61 µM. Besides, the TGI with DMS 114 small cell lung is > 100 µM; in the experiment with DMS 273 small cell lung it was > 100 µM; in the experiment on HOP-18 NSCLC it was 37.6 µM; with KM20L2 colon, > 100 µM; in the experiment on SNB-78 CNS, > 100 µM.

As for `c1cc(-c2cn[nH]c2)cc(-c2cn[nH]c2)c1`, the TGI in the experiment on DMS 114 small cell lung, in the experiment on DMS 273 small cell lung, in the experiment with KM20L2 colon, with M19-MEL melanoma, with RXF-631 renal and in the experiment with SNB-78 CNS was > 100 µM each time.

`COc1ccc(Cl)cc1NC(=O)c1cccc([N+](=O)[O-])c1O`: the TGI with HOP-18 NSCLC was 8.79 µM; in the experiment on KM20L2 colon, 89.9 µM; in the experiment on M19-MEL melanoma, > 100 µM; in the experiment on MDA-N, > 100 µM; in the experiment with SNB-78 CNS, > 100 µM.

For `CC(=O)[C-](C(C)=O)c1ccccc1.CC(=O)[C-](C(C)=O)c1ccccc1.CC[O-].CC[O-].[Ti+4]`, in the experiment with KM20L2 colon, the GI50 was > 100 µM and the TGI was > 100 µM.

As for `COc1ccc(C(=O)C(C(=O)C(=O)Nc2nccs2)c2ccc(OC)cc2)cc1` (stereo not given), the TGI in the experiment on DMS 114 small cell lung, in the experiment on DMS 273 small cell lung, in the experiment with HOP-18 NSCLC, in the experiment with KM20L2 colon, with SNB-78 CNS and in the experiment on XF 498 CNS was > 100 µM throughout.

`CC(=O)OC1CCC2(C)C(=CCC3C4CCC5(OC6CC(C)CN(C(C)=O)C6C5C)C(C)=C4C(=O)C32)C1` (stereo not given) came in with a TGI in the experiment with MDA-N of 48.6 µM.

Molecule `CC(C)(C)[Si](C)(C)OCC1C=CC(n2cnc3c(N)ncnc32)O1` (stereo not given) showed a TGI with MDA-N of 85.9 µM.

For the molecule `C#C[C@H](CCCC)OC(=O)N[C@H](C)c1ccccc1`, the TGI was 81 µM in the experiment on DMS 114 small cell lung; > 100 µM in the experiment on DMS 273 small cell lung; > 100 µM in the experiment on HOP-18 NSCLC; > 100 µM in the experiment on KM20L2 colon; 93.8 µM in the experiment with M19-MEL melanoma; > 100 µM with RXF-631 renal. Moreover, the TGI in the experiment with SNB-78 CNS and with XF 498 CNS was > 100 µM in each case.

For the molecule `NCCP(=O)(O)O`, the TGI with MDA-N is > 100 µM.

As to `O=C(O)/C(=C\c1ccccc1Cl)S(=O)(=O)c1ccccc1`, the TGI with DMS 114 small cell lung, in the experiment with DMS 273 small cell lung, in the experiment with HOP-18 NSCLC, with KM20L2 colon, in the experiment with M19-MEL melanoma and in the experiment with RXF-631 renal was > 100 µM each time. Besides, in the experiment with SNB-78 CNS, the TGI is > 100 µM.

Turning to `N[C@@H]1CCCC[C@@H]1N.O=C([O-])CN(CP(=O)([O-])[O-])CP(=O)([O-])[O-].[Pt+2]`, the GI50 in the experiment on DMS 273 small cell lung, in the experiment on HOP-18 NSCLC, in the experiment with KM20L2 colon, in the experiment on M19-MEL melanoma, in the experiment with SNB-78 CNS and in the experiment on XF 498 CNS was > 100 µM each time. Further, the TGI with DMS 273 small cell lung, with HOP-18 NSCLC, in the experiment on KM20L2 colon, in the experiment with M19-MEL melanoma, in the experiment with SNB-78 CNS and in the experiment with XF 498 CNS was > 100 µM in each case.

With `C1=C(c2ccccc2)SC=C(c2ccccc2)S1`, the TGI in the experiment on MDA-N came to 36.5 µM.

Molecule `COc1ccc(/C=C(/C)[N+](=O)[O-])cc1` showed a TGI in the experiment with MDA-N of 5.25 µM.
